Measured values taken from patent US20080280879A1, “SUBSTITUTED HETEROCYCLIC DERIVATIVES AND THEIR PHARMACEUTICAL USE AND COMPOSITIONS” (priority 2007, published 2008).
≈ marks a conversion by molar mass, not a printed value.

What was measured:
Assay type in all cases: cell-based, Staphylococcus aureus
Staph aureus 2811 = assay: MIC, microtiter broth dilution (CLSI M7-A7), Assay 1, Table 12 column D, no serum; details: for MIC, column D: Staph aureus 2811, Assay 1, no serum; for MIC: Staphylococcus aureus, 2811, Staph aureus 2811, Assay 1, no serum
How it was run: (§1)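 Testing followed the CLSI M7-A7 dilution standard in microtiter trays, with serum conditions using Mueller-Hinton Broth plus 50% pooled inactivated human serum. Values are the lowest concentrations with no macroscopically visible growth.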

Staph aureus 2812 = assay: MIC, microtiter broth dilution (CLSI M7-A7), Assay 1, Table 12 column E, no serum; details: for MIC, column E: Staph aureus 2812, Assay 1, no serum; for MIC: Staphylococcus aureus, 2812, Staph aureus 2812, Assay 1, no serum
How it was run: as §1

Staph aureus 2810 = assay: MIC, microtiter broth dilution (CLSI M7-A7), Assay 2, Table 12 column H, no serum; details: Staph aureus 2810, Assay 2, no serum
Description: (§2) The assays described herein include a panel of bacterial isolates of Staphylococcus aureus. Assay 1 comprises the strains noted in Columns A through E, and Assay 2 comprises the strains noted in Columns F through H. The assays are performed in microtiter trays according to Methods for Dilution Antimicrobial Susceptibility Tests for Bacteria that Grow Aerobically; Approved Standard-7th edition (M7-A7) and interpreted according to the Performance Standards for Antimicrobial Susceptibility Testing; 16th Informational Supplement (M100-S16) published by Clinical Laboratory Standards Institute (CLSI). The antibacterial activity is presented in the form of a minimum inhibitory concentration (MIC) value in μg/ml format. The MIC value represents the lowest concentration of drug measured which prevented macroscopically visible growth under the conditions and specific doses tested. The compounds were initially dissolved in DMSO as 30 mM stocks and diluted accordingly to adjust to a concentration of 10 mg/ml or the compounds were dissolved in DMSO at a concentration of 10 mg/ml. For assessment of activity in the presence of human serum, S. aureus 1146 and S. aureus 1031 were inoculated into Mueller-Hinton Broth with 50% pooled inactivated human serum. In some cases, compounds were tested more than once in a particular assay. Where noted, the MIC value shown in Table 12 represents the geometric mean of the data from multiple runs.
(§3) It should be understood that the data in columns A-H represents MIC data in μg/ml and the notation “<=” means ‘less than or equal to’.

Staph aureus 1095 MRSA = assay: MIC, microtiter broth dilution (CLSI M7-A7), Assay 1, Table 12 column A, no serum; details: Assay 1, no serum; for MIC: Staphylococcus aureus, MRSA
How it was run: as §1

Staph aureus 1146 [1] = assay: MIC, microtiter broth dilution (CLSI M7-A7), Assay 1, Table 12 column B, no serum; details: for MIC, column B: Staph aureus 1146, Assay 1, no serum; for MIC: Staphylococcus aureus, 1146, Staph aureus 1146, Assay 1, no serum
How it was run: as §1

Staph aureus 1146 [2] = assay: MIC in Mueller-Hinton Broth with 50% pooled inactivated human serum, Assay 1, Table 12; details: for MIC, column C: Staph aureus 1146, Assay 1, 50% human serum; for MIC: Staphylococcus aureus, 1146, Staph aureus 1146, Assay 1, 50% human serum, read-out: MIC, column C
How it was run: as §1

Staph aureus 1031 = assay: MIC, microtiter broth dilution (CLSI M7-A7), Assay 2, Table 12 column F, no serum; details: Staph aureus 1031, Assay 2, no serum
Description: as §2, §3

Compound	MIC, column D (Staph aureus 2811)	MIC, column E (Staph aureus 2812)	MIC, column H (Staph aureus 2810) [µg/mL]	MIC, column A (Staph aureus 1095 MRSA)	MIC, column B (Staph aureus 1146 [1])	MIC, column C (Staph aureus 1146 [2]) [µg/mL]	MIC, column F (Staph aureus 1031)	MIC (Staph aureus 2811) [µg/mL]	MIC (Staph aureus 2812) [µg/mL]	MIC (Staph aureus 1095 MRSA) [µg/mL]	MIC (Staph aureus 1146 [1]) [µg/mL]	MIC (Staph aureus 1146 [2]) [µg/mL]
COc1ccc2nccc(C(O)CC[C@@H]3CCN(C4CC(c5ccccc5)C4)C[C@@H]3C(=O)O)c2c1 (single isomer, unassigned) [Example 1]	<=.0787 μg/ml	<=.0992 μg/ml	0.125 (≈ 0.263 µM)	<=.0992 μg/ml	<=.0787 μg/ml	0.3969 (≈ 0.836 µM)	<=.0884 μg/ml					
COc1ccc2ncc(Cl)c(C(O)CC[C@@H]3CCN(C4CC(c5c(F)cccc5F)C4)C[C@@H]3C(=O)O)c2c1 (stereo partly drawn) [Example 214, (3R,4R)-4-[3-(3-chloro-6-methoxyquinolin-4-yl)-3-hydroxypropyl]-1-[3-(2,6-difluorophenyl)cyclobutyl]piperidine-3-carboxylic acid]	<0.0625 µg/mL	<0.0625 µg/mL		<0.0625 µg/mL	<0.0625 µg/mL	2.00 (≈ 3.67 µM)						
COc1ccc2ncc(F)c(C(O)CC[C@@H]3CCN([C@H]4C[C@H](c5c(F)cccc5F)C4)C[C@@H]3C(=O)O)c2c1 (stereo partly drawn) [Example 215, (3R,4R)-1-[trans-3-(2,6-difluorophenyl)cyclobutyl]-4-[3-(3-fluoro-6-methoxyquinolin-4-yl)-3-hydroxypropyl] piperidine-3-carboxylic acid]								< 0.0625	< 0.0625	< 0.0625	< 0.0625	1 (≈ 1.89 µM)
COc1ccc2nccc([C@@H](O)CC[C@@H]3CCN(C4CC(c5ccc(F)c(C#N)c5)C4)C[C@@H]3C(=O)O)c2c1 (stereo partly drawn) [Example 216, (3R,4R)-1-[3-(3-cyano-4-fluorophenyl)cyclobutyl]-4-[(3S)-3-hydroxy-3-(6-methoxyquinolin-4-yl)propyl] piperidine-3-carboxylic acid]								8 (≈ 15.5 µM)	32 (≈ 61.8 µM)	> 64	16 (≈ 30.9 µM)	64 (≈ 124 µM)
COc1ccc2ncc(F)c(C(O)CC[C@@H]3CCN(C4CC(c5cc(F)ccc5F)C4)C[C@@H]3C(=O)O)c2n1 (stereo partly drawn) [Example 217, (3R,4R)-1-[3-(2,5-difluorophenyl)cyclobutyl]-4-[3-(3-fluoro-6-methoxy-1,5-naphthyridin-4-yl)-3-hydroxypropyl]piperidine-3-carboxylic acid]	0.125 µg/mL (≈ 0.236 µM)	0.0600 µg/mL (≈ 0.113 µM)		0.125 µg/mL (≈ 0.236 µM)	0.0600 µg/mL (≈ 0.113 µM)	2.00 (≈ 3.78 µM)						
COc1ccc2ncc(F)c(C(O)CC[C@@H]3CCN(C4CC(c5cc(F)ccc5F)C4)C[C@@H]3C(=O)O)c2n1 (stereo partly drawn) [Example 218, (3R,4R)-1-[3-(2,5-difluorophenyl)cyclobutyl]-4-[3-(3-fluoro-6-methoxy-1,5-naphthyridin-4-yl)-3-hydroxypropyl]piperidine-3-carboxylic acid]	<0.0625 µg/mL	<0.0625 µg/mL		0.125 µg/mL (≈ 0.236 µM)	<0.0625 µg/mL	2.00 (≈ 3.78 µM)						
COc1ccc(C2CC(N3CC[C@@H](CC[C@H](O)c4ccnc5ccc(OC)cc45)[C@@H](C(=O)O)C3)C2)c(F)c1 (stereo partly drawn) [Example 220, (3R,4R)-1-[3-(2-fluoro-4-methoxyphenyl)cyclobutyl]-4-[(3S)-3-hydroxy-3-(6-methoxyquinolin-4-yl)propyl]piperidine-3-carboxylic acid]								16 (≈ 30.6 µM)	32 (≈ 61.2 µM)	64 (≈ 122 µM)	32 (≈ 61.2 µM)	> 64
COc1ccc2ncc(F)c([C@@H](O)CC[C@@H]3CCN(C4CC(c5cc(F)cc(F)c5)C4)C[C@@H]3C(=O)O)c2c1 (stereo partly drawn) [Example 221, (3R,4R)-1-[3-(3,5-difluorophenyl)cyclobutyl]-4-[(3S)-3-(3-fluoro-6-methoxyquinolin-4-yl)-3-hydroxypropyl] piperidine-3-carboxylic acid]								0.25 (≈ 0.473 µM)	0.25 (≈ 0.473 µM)	1 (≈ 1.89 µM)	0.25 (≈ 0.473 µM)	4 (≈ 7.57 µM)
COc1ccc2ncc(F)c(C(O)CC[C@@H]3CCN(C4CC(c5cc(F)cc(F)c5)C4)C[C@@H]3C(=O)O)c2n1 (stereo partly drawn) [Example 222, (3R,4R)-1-[3-(3,5-difluorophenyl)cyclobutyl]-4-[3-(3-fluoro-6-methoxy-1,5-naphthyridin-4-yl)-3-hydroxypropyl]piperidine-3-carboxylic acid]								< 0.0625	< 0.0625	0.25 (≈ 0.472 µM)	< 0.0625	2 (≈ 3.78 µM)
COc1ccc2nccc([C@@H](O)CC[C@@H]3CCN(C4CC(c5cccc(C#N)c5)C4)C[C@@H]3C(=O)O)c2c1 (stereo partly drawn) [Example 223, (3R,4R)-1-[3-(3-cyanophenyl)cyclobutyl]-4-[(3S)-3-hydroxy-3-(6-methoxyquinolin-4-yl)propyl]piperidine-3-carboxylic acid]								4 (≈ 8.01 µM)	8 (≈ 16 µM)	16 (≈ 32 µM)	4 (≈ 8.01 µM)	32 (≈ 64 µM)
COc1ccc2nccc([C@@H](O)CC[C@@H]3CCN(C4CC(c5ccccc5)C4)C[C@@H]3c3nn[nH]n3)c2c1 (stereo partly drawn) [Example 224, (S)-1-(6-methoxyquinolin-4-yl)-3-((3R,4R)-1-(3-phenylcyclobutyl)-3-(2H-tetrazol-5-yl)piperidin-4-yl)propan-1-ol]								0.25 (≈ 0.501 µM)	0.5 (≈ 1 µM)	2 (≈ 4.01 µM)	0.25 (≈ 0.501 µM)	8 (≈ 16 µM)
COc1ccc2nccc([C@@H](O)CC[C@@H]3CCN(C4CC5c6ccccc6SC54)C[C@@H]3C(=O)O)c2c1 (stereo partly shown) [Example 225]								0.25 (≈ 0.495 µM)	0.5 (≈ 0.991 µM)	1 (≈ 1.98 µM)	0.25 (≈ 0.495 µM)	2 (≈ 3.96 µM)
COc1ccc2nccc([C@@H](O)CC[C@@H]3CCN(C4CC(c5cccc(C#N)c5)C4)C[C@@H]3C(=O)O)c2c1 (stereo partly drawn) [Example 226, (3R,4R)-1-(3-(3-cyanophenyl)cyclobutyl)-4-((S)-3-hydroxy-3-(6-methoxyquinolin-4-yl)propyl)piperidine-3-carboxylic acid]	4 µg/mL (≈ 8.01 µM)	8 µg/mL (≈ 16 µM)		16 µg/mL (≈ 32 µM)	4 µg/mL (≈ 8.01 µM)	32 (≈ 64 µM)						
COc1ccc2ncc(F)c([C@@H](O)CC[C@@H]3CCN(C4CC(=O)N(c5ccccc5)C4)C[C@@H]3C(=O)O)c2c1 (stereo partly shown) [Example 227]								2 (≈ 3.83 µM)	8 (≈ 15.3 µM)	8 (≈ 15.3 µM)	2 (≈ 3.83 µM)	64 (≈ 123 µM)
(3R,4R)-1-(1-cyclobutylazetidin-3-yl)-4-[3-hydroxy-3-(6-methoxyquinolin-4-yl)propyl]piperidine-3-carboxylic acid [Example 130]	>64 µg/mL	>64 µg/mL		>64 µg/mL	>64 µg/mL	>64						
(3R,4R)-1-[3-(2,5-difluorophenyl)cyclobutyl]-4-[3-(3-fluoro-6-methoxy-1,5-naphthyridin-4-yl)-3-hydroxypropyl]piperidine-3-carboxylic acid [Example 219]	<0.0625 µg/mL	0.125 µg/mL		0.250 µg/mL	<0.0625 µg/mL	2.00						
